pIC50: −log10 of the molar value.
Key:
4T1 = experiment: Cytotoxicity against mouse 4T1 cells assessed as inhibition of cell growth incubated for 72 hrs by MTT assay; format: functional, cell-based; settings: 4T1, 72 h
[1] = Selectivity ratio of IC50 for cytotoxicity against human HEK293 cells assessed as inhibition of cell growth to IC50 for cytotoxicity against human MCF7 cells assessed as inhibition of cell growth; format: toxicity, cell-based; settings: HEK293 cells versus MCF7 cells, read-out: Ratio IC50
MDA-MB-453 = experiment: Cytotoxicity against human MDA-MB-453 cells assessed as inhibition of cell growth incubated for 72 hrs by MTT assay; format: functional, cell-based; settings: MDA-MB-453, 72 h
[2] = Selectivity ratio of IC50 for cytotoxicity against human HEK293 cells assessed as inhibition of cell growth to IC50 for cytotoxicity against human MDA-MB-453 cells assessed as inhibition of cell growth; format: toxicity, cell-based; settings: HEK293 cells versus MDA-MB-453 cells, read-out: Ratio IC50
[3] = Selectivity ratio of IC50 for cytotoxicity against human HCEC cells assessed as inhibition of cell growth to IC50 for cytotoxicity against human MDA-MB-231 cells assessed as inhibition of cell growth; format: toxicity, cell-based; settings: HCEC cells versus MDA-MB-231 cells, read-out: Ratio IC50
[4] = Cytotoxicity against human HEK293 cells assessed as inhibition of cell growth incubated for 72 hrs by MTT assay; format: toxicity, cell-based
[5] = Selectivity ratio of IC50 for cytotoxicity against human HEK293 cells assessed as inhibition of cell growth to IC50 for cytotoxicity against human MDA-MB-231 cells assessed as inhibition of cell growth; format: toxicity, cell-based; settings: HEK293 cells versus MDA-MB-231 cells, read-out: Ratio IC50
MCF7 = experiment: Cytotoxicity against human MCF7 cells assessed as inhibition of cell growth incubated for 72 hrs by MTT assay; format: functional, cell-based; settings: MCF7, 72 h
MDA-MB-231 = experiment: Cytotoxicity against human MDA-MB-231 cells assessed as inhibition of cell growth incubated for 72 hrs by MTT assay; format: functional, cell-based; settings: MDA-MB-231, 72 h
[6] = Cytotoxicity against human MCF-10A cells assessed as inhibition of cell growth incubated for 72 hrs by MTT assay; format: toxicity, cell-based
[7] = Selectivity ratio of IC50 for cytotoxicity against human MCF-10A cells assessed as inhibition of cell growth to IC50 for cytotoxicity against […] cells assessed as inhibition of cell growth; format: toxicity, cell-based; settings: MCF-10A cells versus 4T1 cells, read-out: Ratio IC50
[8] = Selectivity ratio of IC50 for cytotoxicity against human HCEC cells assessed as inhibition of cell growth to IC50 for cytotoxicity against mouse 4T1 cells assessed as inhibition of cell growth; format: toxicity, cell-based; settings: HCEC cells versus 4T1 cells, read-out: Ratio IC50
[9] = Selectivity ratio of IC50 for cytotoxicity against human HEK293 cells assessed as inhibition of cell growth to IC50 for cytotoxicity against mouse 4T1 cells assessed as inhibition of cell growth; format: toxicity, cell-based; settings: HEK293 cells versus 4T1 cells, read-out: Ratio IC50
[10] = Selectivity ratio of IC50 for cytotoxicity against human HCEC cells assessed as inhibition of cell growth to IC50 for cytotoxicity against human MCF7 cells assessed as inhibition of cell growth; format: toxicity, cell-based; settings: HCEC cells versus MCF7 cells, read-out: Ratio IC50
[11] = Selectivity ratio of IC50 for cytotoxicity against human MCF-10A cells assessed as inhibition of cell growth to IC50 for cytotoxicity against human MDA-MB-231 cells assessed as inhibition of cell growth; format: toxicity, cell-based; settings: MCF-10A cells versus MDA-MB-231 cells, read-out: Ratio IC50
[12] = Selectivity ratio of IC50 for cytotoxicity against human HCEC cells assessed as inhibition of cell growth to IC50 for cytotoxicity against human MDA-MB-453 cells assessed as inhibition of cell growth; format: toxicity, cell-based; settings: HCEC cells versus MDA-MB-453 cells, read-out: Ratio IC50
[13] = Selectivity ratio of IC50 for cytotoxicity against human MCF-10A cells assessed as inhibition of cell growth to IC50 for cytotoxicity against human MDA-MB-453 cells assessed as inhibition of cell growth; format: toxicity, cell-based; settings: MCF-10A cells versus MDA-MB-453 cells, read-out: Ratio IC50
[14] = Selectivity ratio of IC50 for cytotoxicity against human MCF-10A cells assessed as inhibition of cell growth to IC50 for cytotoxicity against human MCF7 cells assessed as inhibition of cell growth; format: toxicity, cell-based; settings: MCF-10A cells versus MCF7 cells, read-out: Ratio IC50
[15] = Cytotoxicity against human HCEC cells assessed as inhibition of cell growth incubated for 72 hrs by MTT assay; format: toxicity, cell-based; settings: for IC50 at 72 h: human, HCEC cells
Histone deacetylase 3 = Histone deacetylase 3 (Homo sapiens, UniProt O15379); experiment: Inhibition of human recombinant HDAC3 at 1 uM measured after 30 mins by fluorescence based microplate assay relative to control
Chain of Histone deacetylase 3 (O15379 whole entry): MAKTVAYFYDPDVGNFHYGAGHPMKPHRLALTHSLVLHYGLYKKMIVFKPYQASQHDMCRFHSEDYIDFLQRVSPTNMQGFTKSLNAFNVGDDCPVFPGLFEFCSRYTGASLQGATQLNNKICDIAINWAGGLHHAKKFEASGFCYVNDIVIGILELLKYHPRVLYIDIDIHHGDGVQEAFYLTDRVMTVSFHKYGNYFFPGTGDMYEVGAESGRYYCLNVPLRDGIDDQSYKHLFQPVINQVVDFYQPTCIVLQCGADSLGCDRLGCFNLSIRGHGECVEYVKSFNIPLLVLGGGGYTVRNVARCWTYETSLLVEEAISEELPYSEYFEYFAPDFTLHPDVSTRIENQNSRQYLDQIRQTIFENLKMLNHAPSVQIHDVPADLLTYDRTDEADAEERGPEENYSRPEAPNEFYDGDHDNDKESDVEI

| SMILES | pIC50 (4T1) | selectivity ratio [1] | pIC50 (MDA-MB-453) | selectivity ratio [2] | selectivity ratio [3] | IC50 at 72 h [4] [µM] | selectivity ratio [5] | pIC50 (MCF7) | pIC50 (MDA-MB-231) | IC50 at 72 h [6] [µM] | selectivity ratio [7] | selectivity ratio [8] | selectivity ratio [9] | selectivity ratio [10] | selectivity ratio [11] | selectivity ratio [12] | selectivity ratio [13] | selectivity ratio [14] | IC50 at 72 h [15] [µM] | also measured |
| --- | --- | --- | --- | --- | --- | --- | --- | --- | --- | --- | --- | --- | --- | --- | --- | --- | --- | --- | --- | --- |
| CCCNNC(=O)c1cnc(N2CCCCC2)cn1 | 6.05 | > 40 | 5.54 | > 40 | > 40 | 118 | > 40 | 5.61 | 3.88 | 110 | > 40 | > 40 | > 40 | > 40 | > 40 | > 40 | > 40 | > 40 | 163 |  |
| CCCNNC(=O)c1cnc(Nc2cccc3ccccc23)cn1 | 6.03 | > 40 | 5.54 | > 40 | > 40 | 116 | > 40 | 5.82 | 5.76 | 112 | > 40 | > 40 | > 40 | > 40 | > 40 | > 40 | > 40 | > 40 | 126 |  |
| CCCCNNC(=O)c1cnc(NCc2ccc(OC)cc2)cn1 | 6.03 | > 40 | 5.57 | > 40 | > 40 | 107 | > 40 | 5.59 | 6.01 | 109 | > 40 | > 40 | > 40 | > 40 | > 40 | > 40 | > 40 | > 40 |  | inhibition (Histone deacetylase 3): > 70%; pIC50 ([15]; hcec): 2.86 |
| CCCNNC(=O)c1cnc(N)cn1 | 5.97 | > 40 | 5.61 | > 40 | > 40 | 141 | > 40 | 6.00 | 6.06 | 139 | > 40 | > 40 | > 40 | > 40 | > 40 | > 40 | > 40 | > 40 | 220 |  |
| CCCCNNC(=O)c1cnccn1 | 6.06 | > 40 | 5.60 | > 40 | > 40 | 101 | > 40 | 5.61 | 5.93 | 103 | > 40 | > 40 | > 40 | > 40 | > 40 | > 40 | > 40 | > 40 | 175 |  |
| CCCCNNC(=O)c1cnc(NC(=O)c2ccc3[nH]ccc3c2)cn1 | 5.84 |  | 5.39 |  |  | 107 |  | 5.61 | 5.77 | 105 |  |  |  |  |  |  |  |  | 130 |  |
| CCCCNNC(=O)c1cnc(Nc2ccccc2)cn1 | 5.66 | > 40 | 5.29 | > 40 | > 40 | 207 | > 40 | 5.94 | 5.72 | 138 | > 40 | > 40 | > 40 | > 40 | > 40 | > 40 | > 40 | > 40 | 180 |  |
| CCCCNNC(=O)c1cnc(Nc2cccc3ccccc23)cn1 | 6.01 | > 40 | 5.33 | > 40 | > 40 | 189 | > 40 | 5.38 | 5.69 | 114 | > 40 | > 40 | > 40 | > 40 | > 40 | > 40 | > 40 | > 40 | 151 |  |
| CCCCNNC(=O)c1cnc(NC(=O)c2ccc3ncccc3c2)cn1 | 5.53 | > 40 | 5.31 | > 40 | > 40 | 264 | > 40 | 5.87 | 5.55 | 220 | > 40 | > 40 | > 40 | > 40 | > 40 | > 40 | > 40 | > 40 | 234 |  |
| CCCNNC(=O)c1cnc(NC(C)=O)cn1 | 6.04 | > 40 | 5.71 | > 40 | > 40 | 118 | > 40 | 5.92 | 6.01 | 142 | > 40 | > 40 | > 40 | > 40 | > 40 | > 40 | > 40 | > 40 | 164 |  |
| CCCCNNC(=O)c1cnc(N)cn1 | 5.90 | > 40 | 5.48 | > 40 | > 40 | 133 | > 40 | 5.74 | 5.90 | 118 | > 40 | > 40 | > 40 | > 40 | > 40 | > 40 | > 40 | > 40 | 215 |  |
| CCCCNNC(=O)c1cnc(NC(C)=O)cn1 | 5.56 |  | 5.10 |  |  | 229 |  | 5.78 | 5.52 | 106 |  |  |  |  |  |  |  |  | 187 |  |
| CCCCNNC(=O)c1cnc(N2CCCCC2)cn1 | 5.41 |  | 5.17 |  |  | 101 |  | 5.73 | 5.53 | 104 |  |  |  |  |  |  |  |  | 119 |  |
| CCCNNC(=O)c1cnccn1 | 5.94 | > 40 | 5.60 | > 40 | > 40 | 134 | > 40 | 5.86 | 5.97 | 117 | > 40 | > 40 | > 40 | > 40 | > 40 | > 40 | > 40 | > 40 | 128 |  |

Reference: ChEMBL document CHEMBL5365457, “Selective HDAC3 Inhibitors with Potent In Vivo Antitumor Efficacy against Triple-Negative Breast Cancer” (J Med Chem, 2023)
